According to paper PMC5632727, “Boeravinone B, A Novel Dual Inhibitor of NorA Bacterial Efflux Pump of Staphylococcus aureus and Human P-Glycoprotein, Reduces the Biofilm Formation and Intracellular Invasion of Bacteria” (Frontiers in Microbiology, 2017):
Like-named read-outs stand apart in the source and are kept apart here.

What was measured:
Format in all cases: cell-based
[1] = biological target: T1, NorA multidrug efflux pump (Staphylococcus aureus, UniProt Q03325); test: ethidium bromide efflux and accumulation in NorA-overexpressing SA-1199B cells; no effect in norA knockout SA-K1758
T1 construct: gene norA1199

[2] = biological target: T1, NorA multidrug efflux pump; test: fluorescent efflux and accumulation in NorA-overexpressing, wild-type and knockout S. aureus cells
[3] = biological target: T1, NorA multidrug efflux pump

T1 sequence (Q03325 entry or part of it): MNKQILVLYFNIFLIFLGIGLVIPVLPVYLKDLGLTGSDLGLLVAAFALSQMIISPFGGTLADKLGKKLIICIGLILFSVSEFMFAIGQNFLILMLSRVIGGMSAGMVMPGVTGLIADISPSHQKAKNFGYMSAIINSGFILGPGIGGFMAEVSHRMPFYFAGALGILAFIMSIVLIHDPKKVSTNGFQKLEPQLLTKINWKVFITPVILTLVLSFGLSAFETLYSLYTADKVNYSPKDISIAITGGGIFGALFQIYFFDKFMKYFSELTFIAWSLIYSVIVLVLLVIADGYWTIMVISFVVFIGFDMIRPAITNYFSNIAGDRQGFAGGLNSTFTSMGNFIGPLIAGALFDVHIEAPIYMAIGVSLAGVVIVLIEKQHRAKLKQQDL

Cc1c(O)cc2oc3c(c(=O)c2c1O)-c1ccccc1OC3O (stereo not drawn) [boeravinone B, 6,9,11-trihydroxy-10-methylchromeno[3,4-b]chromen-12(6H)-one]
ethidium bromide efflux and accumulation in NorA-overexpressing SA-1199B cells; [1]: in cells treated with boeravinone B, the efflux of ethidium bromide was prevented, resulting in the prolonged retention of fluorescence

CC[n+]1c(-c2ccccc2)c2cc(N)ccc2c2ccc(N)cc21 [ethidium bromide]
fluorescent efflux and accumulation in NorA-overexpressing, wild-type and knocko [2]: a rapid decrease occurred in the fluorescence because of the NorA-mediated efflux of ethidium bromide

COC(=O)[C@H]1[C@H]2C[C@@H]3c4[nH]c5cc(OC)ccc5c4CCN3C[C@H]2C[C@@H](OC(=O)c2cc(OC)c(OC)c(OC)c2)[C@@H]1OC [reserpine]
ethidium bromide efflux and accumulation in NorA-overexpressing SA-1199B cells; [3]: Reserpine, a known efflux pump inhibitor, was used as the positive control in both studies.
